Data from US20240409585A1, “MACROCYCLIC IMMUNOMODULATORS” (priority 2021, published 2024).
Like-named read-outs stand apart in the source and are kept apart here. Bridge positions count the residues as written; N and C are the ends. Square brackets hold non-standard residues; d marks the D form. Peptide text beside a SMILES is read from it. * marks the point of attachment. ξ: configuration not given here. Ala(morpholin-4-yl) = N[C@@H](CN1CCOCC1)C(=O)O; Phe(4-COOH) = N[C@@H](Cc1ccc(C(=O)O)cc1)C(=O)O; Bip = N[C@@H](Cc1ccc(-c2ccccc2)cc1)C(=O)O; Phe(3-F) = N[C@@H](Cc1cccc(F)c1)C(=O)O; Phe(3-Me) = Cc1cccc(C[C@H](N)C(=O)O)c1; 2Nal = N[C@@H](Cc1ccc2ccccc2c1)C(=O)O; Val(3-OH) = CC(C)(O)[C@H](N)C(=O)O; 4Pal = N[C@@H](Cc1ccncc1)C(=O)O; Cha = N[C@@H](CC1CCCCC1)C(=O)O; Cit = NC(=O)NCCC[C@H](N)C(=O)O; Thr(3ξ) = CC(O)[C@H](N)C(=O)O; Carboxymethyl = O=C(O)C*; NMeA = CN[C@@H](C)C(=O)O; Orn = NCCC[C@H](N)C(=O)O; Dab = NCC[C@H](N)C(=O)O; Dap = NC[C@H](N)C(=O)O; ξDab = NCCC(N)C(=O)O

Molecular target: T1, PE-labeled human PD-L1-Ig binding to Jurkat cell line over-expressing human PD-1 (Jurkat-PD-1) (Homo sapiens, UniProt Q15116)
T1 construct: expressed in transfected cells; host or cells: Jurkat
Assay: Jurkat-PD-1 Cell Binding High-Content Screening Assay (CBA): Method 1

[1] = Jurkat-hPD-1 cells, PE-labeled PD-L1-Ig 20 nM final, read-out: Jurkat HPDL1 PD1 IC50 (uM) (Method 1)

T1 sequence (Q15116 25-288): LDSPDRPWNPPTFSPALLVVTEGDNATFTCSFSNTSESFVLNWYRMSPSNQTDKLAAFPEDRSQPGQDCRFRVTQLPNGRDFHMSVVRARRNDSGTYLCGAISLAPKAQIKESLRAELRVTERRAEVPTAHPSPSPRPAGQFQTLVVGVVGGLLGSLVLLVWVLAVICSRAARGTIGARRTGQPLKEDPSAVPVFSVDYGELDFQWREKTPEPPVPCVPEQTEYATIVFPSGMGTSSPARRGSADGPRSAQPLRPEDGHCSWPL

| IC50 [1] [µM] | IC50 (Jurkat-PD-1 cells, PE-labeled PD-L1-Ig, μM, read-out: CBA Method 1 μM) [µM] | SMILES |
| --- | --- | --- |
| 0.03 | – | CC[C@H](C)[C@@H]1NC(=O)[C@H](Cc2ccc(-c3ccccc3)cc2)NC(=O)[C@H](C(C)C)NC(=O)[C@H](Cc2c[nH]c3ccccc23)NC(=O)[C@H](CC(=O)O)NC(=O)[C@H](Cc2ccc(O)cc2)NC(=O)[C@H](Cc2ccc(OCC(=O)O)cc2)NC(=O)CSC[C@@H](C(=O)N[C@@H](C)C(N)=O)NC(=O)[C@H]([C@@H](C)O)NC(=O)[C@H](C(C)C)NC(=O)[C@H](CC2CCCCC2)NC(=O)[C@H](CCCNC(=N)N)NC(=O)[C@@H](CC(C)C)NC(=O)[C@H](C)N(C)C1=O [Compound 1493] ({CH2CO}-Y(Carboxymethyl)YDWV[Bip]I[NMeA][dL]R[Cha]VTCA-NH2; thioether N-14) |
| 0.01 | – | CC(C)C[C@@H]1NC(=O)[C@H](CCN)NC(=O)[C@@H](CC(C)C)NC(=O)[C@H](C)N(C)C(=O)[C@H](C(C)C)NC(=O)[C@H](Cc2ccc(-c3ccccc3)cc2)NC(=O)[C@H](C(C)C)NC(=O)[C@H](Cc2c[nH]c3ccccc23)NC(=O)[C@H](CC(=O)O)NC(=O)[C@H](Cc2ccc(O)cc2)NC(=O)[C@H](CCN)NC(=O)CSC[C@@H](C(=O)N[C@@H](C)C(N)=O)NC(=O)[C@H]([C@@H](C)O)NC(=O)[C@H](C(C)C)NC1=O [Compound 1361] ({CH2CO}-[Dab]YDWV[Bip]V[NMeA][dL][Dab]LVTCA-NH2; thioether N-14) |
| 0.05 | – | CC(C)C[C@@H]1NC(=O)[C@H](CCCN)NC(=O)[C@@H](CC(C)C)NC(=O)[C@H](C)N(C)C(=O)[C@H](CCCNC(=N)N)NC(=O)[C@H](Cc2ccc(-c3ccccc3)cc2)NC(=O)[C@H](C(C)C)NC(=O)[C@H](Cc2c[nH]c3ccccc23)NC(=O)[C@H](CC(=O)O)NC(=O)[C@H](Cc2ccc(O)cc2)NC(=O)[C@H](Cc2cnc[nH]2)NC(=O)CSC[C@@H](C(=O)N[C@@H](C)C(N)=O)NC(=O)[C@H]([C@@H](C)O)NC(=O)[C@H](C(C)C)NC1=O [Compound 1144] ({CH2CO}-HYDWV[Bip]R[NMeA][dL][Orn]LVTCA-NH2; thioether N-14) |
| 0.03 | – | Cc1cccc(C[C@@H]2NC(=O)[C@H](CC(=O)O)NC(=O)[C@H](Cc3ccc(OCC(=O)O)cc3)NC(=O)[C@H](Cc3ccc(OCC(=O)O)cc3)NC(=O)CSC[C@@H](C(N)=O)NC(=O)[C@H](CCC(N)=O)NC(=O)[C@H](C(C)C)NC(=O)[C@H](CC3CCCCC3)NC(=O)[C@H](CCN)NC(=O)[C@@H](CC(C)C)NC(=O)[C@H](C)N(C)C(=O)[C@H](Cc3ccc(OCC(=O)O)cc3)NC(=O)[C@H](Cc3ccc(-c4ccccc4)cc3)NC(=O)[C@H](Cc3ccc(OCC(=O)O)cc3)NC2=O)c1 [Compound 1655] ({CH2CO}-Y(Carboxymethyl)Y(Carboxymethyl)D[Phe(3-Me)]Y(Carboxymethyl)[Bip]Y(Carboxymethyl)[NMeA][dL][Dab][Cha]VQC-NH2; thioether N-14) |
| – | 0.131 | Cc1cccc(C[C@@H]2NC(=O)[C@H](CC(=O)O)NC(=O)[C@H](Cc3ccc(OCC(=O)O)cc3)NC(=O)[C@H](CN3CCOCC3)NC(=O)CSC[C@@H](C(=O)N[C@@H](CCN)C(N)=O)NC(=O)[C@H](CCCN)NC(=O)[C@H](C(C)C)NC(=O)[C@H](Cc3ccc4ccccc4c3)NC(=O)[C@H](CCN)NC(=O)[C@@H](CC(C)C)NC(=O)[C@H](C)N(C)C(=O)[C@H](CCC(N)=O)NC(=O)[C@H](Cc3ccc(-c4ccccc4)cc3)NC(=O)[C@H](Cc3ccc(C(=O)O)cc3)NC2=O)c1 [Example 5044] ({CH2CO}-[Ala(morpholin-4-yl)]Y(Carboxymethyl)D[Phe(3-Me)][Phe(4-COOH)][Bip]Q[NMeA][dL][Dab][2Nal]V[Orn]C[Dab]-NH2; thioether N-14) |
| 0.03 | – | Cc1cccc(C[C@@H]2NC(=O)[C@H](CC(=O)O)NC(=O)[C@H](Cc3ccc(OCC(=O)O)cc3)NC(=O)[C@H](Cc3ccncc3)NC(=O)CSC[C@@H](C(=O)N[C@@H](CN)C(N)=O)NC(=O)[C@H](C(C)O)NC(=O)[C@H](C(C)(C)O)NC(=O)[C@H](CC3CCCCC3)NC(=O)[C@H](CCN)NC(=O)[C@@H](CC(C)C)NC(=O)[C@H](C)N(C)C(=O)[C@H](CCCNC(N)=O)NC(=O)[C@H](Cc3ccc(-c4ccccc4)cc3)NC(=O)[C@H](Cc3ccc(OCC(=O)O)cc3)NC2=O)c1 (stereo partly drawn) [Compound 2168] ({CH2CO}-[4Pal]Y(Carboxymethyl)D[Phe(3-Me)]Y(Carboxymethyl)[Bip][Cit][NMeA][dL][Dab][Cha][Val(3-OH)][Thr(3ξ)]C[Dap]-NH2; thioether N-14) |
| 0.5 | – | Cc1cccc(C[C@@H]2NC(=O)[C@H](CC(=O)O)NC(=O)[C@H](Cc3ccc(C(=O)O)cc3)NC(=O)[C@H](C(C)O)NC(=O)CSC[C@@H](C(=O)N[C@H](C(N)=O)C(C)(C)O)NC(=O)[C@H](CO)NC(=O)[C@H](C(C)(C)O)NC(=O)[C@H](CC3CCCCC3)NC(=O)[C@H](CCN)NC(=O)[C@@H](CC(C)C)NC(=O)[C@H](C)N(C)C(=O)[C@H](Cc3ccc(OCC(=O)O)cc3)NC(=O)[C@H](Cc3ccc(-c4ccccc4)cc3)NC(=O)[C@H](Cc3ccc(OCC(=O)O)cc3)NC2=O)c1 (stereo partly drawn) [Compound 2202] ({CH2CO}-[Thr(3ξ)][Phe(4-COOH)]D[Phe(3-Me)]Y(Carboxymethyl)[Bip]Y(Carboxymethyl)[NMeA][dL][Dab][Cha][Val(3-OH)]SC[Val(3-OH)]-NH2; thioether N-14) |
| 0.18 | – | CC(C)C[C@@H]1NC(=O)[C@H](Cc2c[nH]c3ccccc23)NC(=O)[C@H](CC(=O)O)NC(=O)[C@H](Cc2ccc(OCC(=O)O)cc2)NC(=O)[C@H](Cc2cnc[nH]2)NC(=O)CSC[C@@H](C(=O)N[C@@H](C)C(N)=O)NC(=O)[C@H](CO)NC(=O)[C@H](C(C)C)NC(=O)[C@H](CC(C)C)NC(=O)[C@H](CC(N)=O)NC(=O)[C@@H](C)NC(=O)[C@H](C)N(C)C(=O)[C@H](C(C)C)NC(=O)[C@H](Cc2ccc(-c3ccccc3)cc2)NC1=O [Compound 1799] ({CH2CO}-HY(Carboxymethyl)DWL[Bip]V[NMeA][dA]NLVSCA-NH2; thioether N-14) |
| 0.09 | – | CC(C)C[C@@H]1NC(=O)[C@H](CCN)NC(=O)[C@@H](CC(C)C)NC(=O)[C@H](C)N(C)C(=O)[C@H](CCCNC(=N)N)NC(=O)[C@H](Cc2ccc(-c3ccccc3)cc2)NC(=O)[C@H](C(C)C)NC(=O)[C@H](Cc2c[nH]c3ccccc23)NC(=O)[C@H](CC(=O)O)NC(=O)[C@H](Cc2cccc(F)c2)NC(=O)[C@H](CC(N)=O)NC(=O)CSC[C@@H](C(=O)N[C@@H](C)C(N)=O)NC(=O)[C@H]([C@@H](C)O)NC(=O)[C@H](C(C)C)NC1=O [Compound 1309] ({CH2CO}-N[Phe(3-F)]DWV[Bip]R[NMeA][dL][Dab]LVTCA-NH2; thioether N-14) |
| 0.01 | – | Cc1cccc(C[C@@H]2NC(=O)[C@H](CC(=O)O)NC(=O)[C@H](Cc3ccc(OCC(=O)O)cc3)NC(=O)[C@H](CN3CCOCC3)NC(=O)CSC[C@@H](C(=O)NC(CCN)C(N)=O)NC(=O)[C@H](CCCN)NC(=O)[C@H](C(C)C)NC(=O)[C@H](Cc3cccc(C)c3)NC(=O)[C@H](CCN)NC(=O)[C@@H](CC(C)C)NC(=O)[C@H](C)N(C)C(=O)[C@H](CCC(N)=O)NC(=O)[C@H](Cc3ccc(-c4ccccc4)cc3)NC(=O)[C@H](Cc3ccc(C(=O)O)cc3)NC2=O)c1 (stereo partly drawn) [Example 2298] ({CH2CO}-[Ala(morpholin-4-yl)]Y(Carboxymethyl)D[Phe(3-Me)][Phe(4-COOH)][Bip]Q[NMeA][dL][Dab][Phe(3-Me)]V[Orn]C[ξDab]-NH2; thioether N-14) |
